Legend:
[1] = system: Poly-L-Lysine Hydrobromide (PLL); test: Lysine depletion protocol (in chemico reactivity towards lysine); conditions: 20 mM molecule incubated 1 h with DNFB 5 mM; FIG. 1B
Method: In an embodiment, a Lysine depletion Protocol—“in house development protocol” was applied, comprising: Dissolve 0.01 g of Poly-L-Lysine Hydrobromide (PLL) (Sigma, P1399) in 100 mL of purified water (use within 2 months). Filter the solution with a syringe filter to remove aggregates and store ate 4° C. for further use. For plate coating add 50 μL of PLL to each well of the 96 black bottom glass microplate (Corning ref 45806) and incubate for 2 hours at 37° C. or 24 h at room temperature.
In an embodiment, after the coating procedure, the contents of the plate were discarded into a sink and the plate is washed 3 times with 200 μL of PBS per well. Blot any residual PBS by firmly tapping the plate upside-down on absorbent paper. 20 mM of each potential ACD inhibitory molecule/mixture is added and incubated with 70 μl of the strong skin sensitizer 1-fluoro-2,4-dinitrobenzene (DNFB) (5 mM in DMSO) for 1h; the mixture was transferred to the plate and incubated for 24 h at 37° C. The contents of the plate were discarded and the wells were washed 3 times with PBS as previously reported. 70 μL of 10 μM Fluorescein-5-Ex-Succinimidyl Ester (FSE) were added and incubated for 1 h in the dark at 37° C. The contents of the plate were discarded; the wells were washed 3 times with PBS as previously stated. The fluorescence was read in a microplate reader (Exc 485±20 nm and Em 530±30 nm). Synergy™ HT plate reader (BioTek Instruments, Inc., Winooski, VT, USA): Bottom read with a sensibility of 50. […]
In an embodiment, Reference control A is made with the solvent DMSO, with incubation with FSE and is used to calculate the maximum fluorescence or absorbance in the presence of LYS. […]
In an embodiment, Test chemicals were pre-weighted into 1.5 mL test tubes and dissolved in 1 mL of DMSO to prepare a 100 mM solution immediately before use. The weight of the test chemical to be added to the vial was determined based on the molecular weight and purity. […]
In an embodiment, for the data Analysis the percentage of peptide depletion is determined by using the following formula: […]

[2] = In vitro release testing (IVRT), Franz cells, cellulose membrane; format: in vitro ADME; conditions: n=6; for dose depletion: 6 h
Method: In an embodiment, release studies of the hydrogels were performed on static vertical Franz cells (PermeGear, Inc., USA), with a diffusion circular area of 0.636 cm^2 and a receptor compartment of 5 mL. For that, infinite dose conditions (1 g) of the formulations were applied in the upper compartment, separated from the receptor by a cellulose membrane (MWCO≈14 000 Da, flat width 33 mm, Sigma-Aldrich), previously hydrated in ultrapurified water for at least 30 min. Before the experiments, the system was equilibrated for a minimum of 30 min. The release medium was composed of phosphate buffer pH 5.5 (guaranteeing the maintenance of sink conditions) and continuously stirred at 600 rpm, at 37° C. A circulating water bath maintained the membrane surface temperature at 32° C. During the release studies, the donor compartment, as well as the receptor sampling arm, were carefully covered to avoid medium evaporation, as well as to conduct the experiments under occlusive conditions. At predetermined time points (0.25, 0.5, 0.75, 1, 2, 3, 4 and 6 h), 300 μl of the medium were withdrawn and immediately replenished with fresh medium. NAC and LYS were quantified by HPLC (High-performance liquid chromatography). Release studies were conducted considering n=6 samples.
In an embodiment, the cumulative amount of NAC and LYS released over time was calculated according to the equation:
[formula] • where Cn is the API (active pharmaceutical ingredient) concentration of the receptor medium at each sampling time, Ci is the API concentration of the ith sample, A the effective diffusion area (0.636 cm^2), and VO (5 mL) and Vi (300 μL) the volumes of the receptor compartment and the collected sample, respectively.
In an embodiment, the release rates were retrieved from the slope of the linear regression obtained by plotting the cumulative amount of API diffused per cm^2 as a function of the square root of time. Additionally, mass balance studies were performed to characterize the extent of dose depletion, according to the equation:
[formula] • where Qf reflects the average cumulative amount released at the end of the assay and Qi the initial amount of API placed on the membrane.
In an embodiment, NAC and LYS were quantified by reversed-phase high-pressure liquid chromatography (RP-HPLC), using a Shimadzu LC-2010HT chromatographic system, equipped with an LC-20AD quaternary pump, a SIL-20AHT autosampler, a CTO-10AS over and an SPD-M2OA photodiode array detector. […] Using an injection volume of 50 μL, NAC and LYS were determined at 200 and 215 nm and eluted at 5.4 and 2.2 min, respectively.

Compound: NCCCC[C@H](N)C(=O)O [LYS, lysine]
- reactivity of the strong allergen DNFB towards lysine (Lysine depletion) [1]: significantly inhibit
- dose depletion [2]: roughly 17%
- Tlag (time-lagged values) [2]: approximately 0 h

Compound: CC(=O)N[C@@H](CS)C(=O)O [NAC, n-acetyl cysteine]
- reactivity of the strong allergen DNFB towards lysine (Lysine depletion) [1]: significantly inhibit
- dose depletion [2]: roughly 17%
- Tlag (time-lagged values) [2]: approximately 0 h
